Measured values from US12319707B2, “Dosage unit form(s) comprising BTS and BTS(OMe) for use in boron neutron capture therapy and methods thereof” (TAE Life Sciences, priority 2021, dated 2025).

Experiments:
[1] = Cellular retention of boron after removal of boron source from the media; format: cell-based
[2] = Pharmacokinetics in non-tumor-bearing Balb/C mice (blood boron by ICP OES); format: in vivo; conditions: for CL / Vss: i.v. tail vein, Balb/C male mice, blood boron
Procedure: To determine the pharmacokinetics of BTS versus BPA (BPA-fructose) in blood, the following experiments were performed using the following protocols and under the parameters set forth in Table II. Briefly, […] of each compound ([…] and BPA-fructose) was injected into the tail vein of Balb/C non-tumor bearing male mice (5 mice per group). Blood was drawn at the following time points: 2, 5, 16, 30, 60, 120 and 240 min into EDTA-coated tubes. Boron concentration was measured using ICP OES following the digestion in concentrated nitric acid for one (1) hr. The boron concentration was normalized to 1 mL of blood and plotted using GraphPad Prizm. The PK parameters (see 20(B)) were obtain using PK Solver version 2.0 using compartmental analysis. BPA-fructose was used as a reference substance.

FaDu cells = assay: Boron uptake in FaDu cells in vitro (ICP-OES); format: cell-based, human; conditions: for intracellular boron concentration: equimolar 2.5 mM compound in HBSS, 2 hr, 37° C., ICP-OES
[3] = test system: FaDu, Detroit 562, MeWo, A549, HCC-1954 xenografts; assay: Boron uptake across panel of established tumor xenografts; format: in vivo; conditions: BTS or BTS(OMe) 800 mg/kg vs BPA 200 mg/kg, 2 hours post-injection, SCID CB-17 mice
Source text: In a further experiment, to ascertain whether BTS and BTS(OMe) are taken up to a relatively higher degree across cancer multiple cell lines which results in a higher boron concentration, the following protocol was used. Briefly, a panel of five (5) human cancer cell lines derived from multiple indications that would be considered for treatment using BNCT were used. Specifically, the panel consisted of Head and Neck Carcinomas (FaDu and Detroit 562), melanoma (MeWo), non-small cancer lung carcinoma (A549), and breast carcinoma (HCC-1954).
Using standard methods, subcutaneously implanted established mouse xenografts were grown in SCID CB-17 mice. The treatment began when the tumors reached 150-200 mm^3 as follows: the BTS or BTS(OMe) arms received 800 mg/kg and the control BPA arm received 200 mg/kg. The animals were euthanized at two (2) hours post-injection. The tumors were harvested, weighed, and digested using the standard methods. The concentration of boron was measured by ICP OES and plotted as microgram per gram tissue. […] However, the absolute uptake varied between the cell lines with the overall lowest uptake observed in the Detroit 562 tumors.

subcutaneous FaDu tumors = assay: Time-course biodistribution and tumor to blood ratio in mice bearing subcutaneous FaDu tumors; format: in vivo; conditions: 400 mg/kg bolus i.v.
Procedure: To determine the biodistribution of BTS and BTS(OMe) and the tumor to blood ration, the following experiments were performed using the following protocols. Briefly, all compounds tested, with the exception of BPA, were prepared as 100 mg/mL stocks. BPA was prepared as a fructose solution at 25 mg/ml. The concentrations were confirmed by ICP OES prior to the study. The blood and tissues (tumor, kidney, and pancreas) were harvested at the times indicated, weighed, and placed inside the Teflon containers and digested using a CEM microwave oven. The digested tissues were analyzed by ICP OES to determine the boron concentration.
All animal studies were carried out following the “Guide for the care and use the laboratory animals,” Eighth Edition and Animal Welfare Act (USDA). Briefly, human hypopharyngeal squamous cell carcinoma FaDu cells were maintained in DMEM, supplemented with L-glutamine and 10% FBS. Subcutaneous (s.c.) tumors were generated by injection of 2.5×10^6 cancer cells mixed at a 1:1 dilution with Matrigel (Corning Life Sciences) in the right flank of female CB17 SCID mice. Tumor sizes were determined by caliper measurements, and the tumor volume was calculated as width^2×Length/2, wherein width is the smallest dimension and length is the largest dimension. Tumors were allowed to grow untreated until they reached an approximate volume of 300 mm^3. At that point, animals were randomized and allocated to each treatment group based on tumor volume at the time of treatment initiation to ensure similar mean tumor size and variation in each group.
Each group received a single dose of BPA at […] or a test article at either 400 mg/kg or […] via intravenous tail vein injection. […] Two (2) hrs. post dose, blood was collected from each mouse from the submandibular vein into K2 EDTA coated tubes. Tumor and organs were collected for boron analysis.
In order to determine the biodistribution of BTS and BTS(OMe) in FaDu-tumor bearing mice and determine the most appropriate time to harvest the tumor and organs of interest during the subsequent dose-escalation studies, 400 mg/kg doses of both molecules were administered as a bolus i.v. injection. BPA-fructose was administered at a dose of […] due to its solubility constraints and the requirements for the maximum i.v. volume allowed. The boron compound accumulation in blood/organs was determined by ICP OES and expressed as μg boron per gram of tissue.

Solubility in water = format: physicochemical
Procedure: To determine the solubility and impurity profiles of BTS and BTS(OMe) in solution, the following experiments were performed using the following protocols. Briefly, BTS test article preparation(s) were prepared by dissolving in water and adjusting pH to 7-7.5 by NaOH.
BTS(OMe) test article preparation(s) were prepared by dissolving in water and gradually raising pH by adding NaOH until all the crystals are solubilized. The pH at that point is approximately 9.5-10. Fructose is then added at the ratio of 1.1 mol/mol BTS(OMe). The pH is adjusted to 7-7.5 using concentrated HCl.
Both solutions were adjusted to 100 mg/mL and 0.2 μm filtered. The actual concentrations are confirmed by ICP OES.

subcutaneous FaDu = assay: Dose titration, biodistribution and boron uptake using subcutaneous FaDu xenografts; format: in vivo, mice; conditions: 2 hr post injection
Procedure: To determine the biodistribution and boron uptake of BTS and BTS(OMe) in vivo, the following experiments were performed using the following protocols. Briefly, to evaluate the effect of increased dose level using bolus i.v. injection on the accumulation of boron in the tumor, SCID mice carrying subcutaneous FaDu were dosed with BTS and BTS(OMe) at the levels ranging from 400 to 1000 mg/kg.
The tumor and selected organs were harvested at two (2) hr. post injection and processed for ICP OES.

LAT-1 [4] = target: T1, LAT-1 (Homo sapiens, UniProt Q01650); assay: Boron accumulation in presence of LAT-1 inhibitors (unpublished); format: cell-based; conditions: unpublished earlier work of the applicant
Target sequence in this assay (Q01650 whole entry, species assumed): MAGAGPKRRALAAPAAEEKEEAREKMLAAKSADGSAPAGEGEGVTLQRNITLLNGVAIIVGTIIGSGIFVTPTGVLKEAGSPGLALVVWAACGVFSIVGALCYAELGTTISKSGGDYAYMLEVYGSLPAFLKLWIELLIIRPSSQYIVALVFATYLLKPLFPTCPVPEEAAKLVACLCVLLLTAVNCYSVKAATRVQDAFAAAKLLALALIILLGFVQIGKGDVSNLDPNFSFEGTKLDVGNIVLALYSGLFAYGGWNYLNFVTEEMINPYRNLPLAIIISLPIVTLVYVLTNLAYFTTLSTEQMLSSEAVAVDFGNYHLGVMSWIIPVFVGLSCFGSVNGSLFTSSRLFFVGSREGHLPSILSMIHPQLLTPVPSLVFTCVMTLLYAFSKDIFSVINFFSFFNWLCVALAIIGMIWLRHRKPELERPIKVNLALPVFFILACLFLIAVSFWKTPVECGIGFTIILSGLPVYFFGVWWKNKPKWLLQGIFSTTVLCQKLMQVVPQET
Target sequence in this assay (P08195 102-630 partner, species assumed): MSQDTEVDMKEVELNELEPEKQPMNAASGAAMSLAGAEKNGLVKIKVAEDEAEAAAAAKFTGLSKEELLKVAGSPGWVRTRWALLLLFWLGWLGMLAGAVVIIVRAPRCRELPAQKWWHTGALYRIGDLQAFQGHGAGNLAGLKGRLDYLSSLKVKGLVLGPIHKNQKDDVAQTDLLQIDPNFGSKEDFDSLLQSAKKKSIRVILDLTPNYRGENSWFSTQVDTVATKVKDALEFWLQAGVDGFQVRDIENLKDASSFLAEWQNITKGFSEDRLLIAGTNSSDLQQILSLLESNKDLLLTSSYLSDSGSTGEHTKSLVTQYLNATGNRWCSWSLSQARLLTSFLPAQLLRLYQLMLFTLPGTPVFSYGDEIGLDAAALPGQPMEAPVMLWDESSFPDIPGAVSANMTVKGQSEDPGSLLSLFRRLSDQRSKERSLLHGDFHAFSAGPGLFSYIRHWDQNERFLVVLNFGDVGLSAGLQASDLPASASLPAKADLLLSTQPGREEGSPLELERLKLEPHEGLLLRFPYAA

[5] = test system: FaDu, A375, SCC-25, A253, and Detroit 562; assay: BTS uptake across head and neck cancer and melanoma cell lines; format: cell-based, human; conditions: 2 hours treatment, each of the five cell lines
Procedure: To evaluate the uptake of BTS in multiple head and neck cancer cell lines as well as melanoma cell lines the following experiments were performed using the following protocols.
Briefly, five (5) human-derived cell lines (FaDu, A375, SCC-25, A253, and Detroit 562), all representing cancer indications relevant to BNCT treatment, were cultured, and treated with either BPA-fructose (the standard of care) or with BTS for two (2) hours. The cells were then washed to remove the compounds, harvested, and treated as per the protocol described above. Boron uptake was reported as μg boron per mg of cellular protein as determined by ICP OES and by the BCA assay, respectively.

CT26 cells = assay: Boron uptake in CT26 cells in vitro (ICP-OES); format: cell-based, mouse; conditions: CT26 cell line, single experiment
Source text: As a result, it accumulates boron compounds at significant levels. Additionally, FaDu also grows well as an established xenograft model in SCID mice. This disclosure endeavored to determine whether a mouse-derived cancer cell line, CT-26, is suitable for BNCT experiments. By way of background, CT26 is a syngeneic model, it can be implanted and established in wild-type BalbC mice and provides a convenient and low-cost model.
Briefly, CT26 cells were harvested and washed with PBS two (2) times, and the count was adjusted 2 million/ml in HBSS media Boron compounds were then added to cells at the final concentration of 2.5 mM in HBSS and the cells were incubated at 37° C. in a humidified 5% CO2 atmosphere for 2.0 hrs. with shaking. Following a two (2) hr. incubation, cells were harvested and washed two times with ice cold PBS. Cells were suspended in 1 ml ice cold PBS and a portion (50 NI) was lysed in RIPA buffer and protein content was determined by BCA assay.
The remaining portion (950 NI) was subjected to nitric acid lysis (66.7% acid at 80° C.) and boron measurements were carried out using ICP-OES.
Low expression of LAT-1 in CT26 estimated by Western blot is consistent with the overall reduced boron uptake. Each bar represents three (3) independent experiments performed on different days (FaDu) or a single experiment (CT-26) Error bars represent 1 standard deviation. […]

[6] = test system: F98 and C6 rat glioma cell lines; assay: BTS uptake using rat glioma cell lines; format: cell-based; conditions: 2 hr, F98 and C6 cells
Source text: Rat glioma cell lines were extensively used as orthotopic cancer models to conduct reactor based BNCT studies using either innovative boron carriers or a myriad of ways to enhance the uptake of BPA, including convection enhanced delivery of boronoporphyrins (Yang, et al., doi:10.1016/j.apradiso.2014.01.002), or pre-treatment of tumors with L-DOPA (Barth, et al., J Neurooncol. 2009; 94:299-312).
In this experiment, used cultured cell lines to confirm that BTS can be used for efficient boron delivery into both F98 and C6 rat glioma cell lines. […] This compound is expected to cross BBB and will be relevant for BNCT of brain tumors.

LAT-1 [7] = target: T1, LAT-1; assay: Uptake competition assay with phenylalanine in FaDu cells; format: cell-based; parameters: endogenous in cells; host or cells: FaDu; conditions: 0.5 mM compound, Phe 0.01 to 20 mM, compared to BTS(OMe) or BPA
Procedure: To determine the ability for BTS and BTS(OMe) to mediate LAT-1, the following experiments were performed using the following protocols. Briefly, FaDu cells (2 million) were incubated in HBSS medium for two (2) hrs. at 37° C. with 0.5 mM of either (i) BTS, (ii) BTS(OMe), or (iii) BPA-fructose in the absence (19A) or presence of increasing concentrations of LAT-1 specific inhibitor JPH203-dichloride, (19A) or phenylalanine, a competitor (19B). Following incubation, the cells were harvested and washed with cold PBS. The amount of each compound that was taken up by the cells was determined by ICP OES. The IC50 determination was made by a three (3) parameter inhibitor non-linear regression fit using Prism (Graph Pad) software.
In the competition assay, increased concentration of Phe in the range of 0.01 to 20 mM was used. […] (FIG. 19).
Target sequence in this assay (Q01650 whole entry): as the sequence (Q01650 whole entry, species assumed) above
Target sequence in this assay (P08195 102-630 partner): as the sequence (P08195 102-630 partner, species assumed) above

| SMILES | CL [2] | Vss [2] | amount of boron in tumors across xenograft panel [3] | solubility in water (Solubility in water) | intracellular boron concentration (FaDu cells) | effect of LAT-1 inhibitor on boron accumulation of borylated tyrosine analogs (LAT-1 [4]) | other results |
| --- | --- | --- | --- | --- | --- | --- | --- |
| Nc1cc(COc2c(Cl)cc(C[C@H](N)C(=O)O)cc2Cl)c2oc(-c3ccccc3)nc2c1 [JPH203] |  |  |  |  |  | diminished boron accumulations in a concentration-dependent fashion |  |
| NC1(C(=O)O)CC2CCC1C2 (stereo not shown) [BCH, 2-aminobicyclo-(2,2,1)-heptane-2-carboxylic acid] |  |  |  |  |  | diminished boron accumulations in a concentration-dependent fashion |  |

Continued, in another order:

| CL [2] | Vss [2] | amount of boron in tumors across xenograft panel [3] | solubility in water (Solubility in water) | SMILES | intracellular boron concentration (FaDu cells) | effect of LAT-1 inhibitor on boron accumulation of borylated tyrosine analogs (LAT-1 [4]) | other results |
| --- | --- | --- | --- | --- | --- | --- | --- |
| 0.00011 mg/(μg/mL)/min | 0.0289 mg/µg/mL |  |  | N[C@@H](Cc1ccc(B(O)O)cc1)C(=O)O [BPA, 4-Borono-L-phenylalanine, reference compound] | 1097 ± 59 µg/g |  | intracellular boron once boron source is removed and replaced with fresh medium (cellular retention) [1]: decreases sharply |
|  |  | highest | very soluble in water | COc1ccc(C[C@H](N)C(=O)O)cc1B(O)O [BTS(OMe)] | 1005 ± 113 µg/g |  | biodistribution compared to BPA (subcutaneous FaDu tumors; BPA-fructose 200): remarkably similar in its biodistribution to BPA; accumulation in kidney or pancreas (subcutaneous FaDu): does not accumulate |
| 0.000304 mg/(μg/mL)/min | 0.0252 mg/µg/mL | highest | very soluble in water | N[C@@H](Cc1ccc(O)c(B(O)O)c1)C(=O)O [BTS] | 1700 ± 133 µg/g |  | boron uptake compared to BPA-fructose [5]: superior uptake; uptake in murine pancreas (subcutaneous FaDu tumors): exceedingly high uptake; increase of tumor to blood ratio between 30 and 60 min (subcutaneous FaDu tumors; FaDu xenografts): more than two-fold; decline of boron in the kidney (subcutaneous FaDu tumors; from initial time point of 5 min): considerably slower; pharmacokinetic profile ([2]; saline formulation, i.v.): bi-phasic pharmacokinetics; amount of compound internalized in CT26 less than in FaDu (CT26 cells): more pronounced; boron concentration achieved, BTS compared to BPA-fructose [6]: > 2 fold; intracellular boron concentration higher compared to BPA-fructose (FaDu cells; equimolar concentrations): 60%; IC50 of phenylalanine competition of compound uptake (LAT-1 [7]): higher IC50 |
